From publication PMC4222822, “Discovery and Characterization of a Potent and Selective Inhibitor of Aedes aegypti Inward Rectifier Potassium Channels” (PLoS ONE, 2014)

Experiments:
Kir7.1(M125R) = target: T1, Kir7.1(M125R) (Homo sapiens, UniProt O60928, M125R); test: Tl+ flux selectivity assay, Kir7.1(M125R); assay type: cell-based; conditions: n = 2 independent experiments in triplicate, read-out: Inhibition of Tl+ flux (IC50)
T1 construct: expressed in transfected cells
T1 sequence (O60928 1-360 M125R): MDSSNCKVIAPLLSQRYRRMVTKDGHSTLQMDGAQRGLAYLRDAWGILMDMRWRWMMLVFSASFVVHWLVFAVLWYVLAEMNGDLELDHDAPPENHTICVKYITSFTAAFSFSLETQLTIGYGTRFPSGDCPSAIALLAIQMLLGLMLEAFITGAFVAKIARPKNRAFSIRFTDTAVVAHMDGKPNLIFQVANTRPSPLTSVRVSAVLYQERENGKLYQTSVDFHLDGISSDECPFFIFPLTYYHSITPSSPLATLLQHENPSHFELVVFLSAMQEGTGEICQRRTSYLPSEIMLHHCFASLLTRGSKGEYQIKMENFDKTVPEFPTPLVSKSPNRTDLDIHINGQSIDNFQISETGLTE

adenosine A1 receptor = target: T2, adenosine A1 receptor (Homo sapiens, UniProt P30542); test: Radioligand displacement assay, adenosine A1 receptor; assay type: binding, mammalian; conditions: 10 µM VU625
T2 sequence (P30542 1-326): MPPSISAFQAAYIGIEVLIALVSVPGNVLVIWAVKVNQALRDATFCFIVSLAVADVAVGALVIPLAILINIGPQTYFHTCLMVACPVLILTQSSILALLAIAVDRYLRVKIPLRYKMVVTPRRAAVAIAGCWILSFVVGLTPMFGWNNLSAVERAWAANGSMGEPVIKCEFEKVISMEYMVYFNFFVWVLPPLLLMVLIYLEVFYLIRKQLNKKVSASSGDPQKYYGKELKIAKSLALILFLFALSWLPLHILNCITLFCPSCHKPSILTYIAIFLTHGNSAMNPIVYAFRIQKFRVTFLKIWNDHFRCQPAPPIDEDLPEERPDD

Kir2.1 = target: T3, Kir2.1 (Homo sapiens, UniProt P63252); test: Tl+ flux selectivity assay, Kir2.1; assay type: cell-based; conditions: n = 2 independent experiments in triplicate, read-out: Inhibition of Tl+ flux (IC50)
T3 construct: expressed in transfected cells
T3 sequence (P63252 1-427): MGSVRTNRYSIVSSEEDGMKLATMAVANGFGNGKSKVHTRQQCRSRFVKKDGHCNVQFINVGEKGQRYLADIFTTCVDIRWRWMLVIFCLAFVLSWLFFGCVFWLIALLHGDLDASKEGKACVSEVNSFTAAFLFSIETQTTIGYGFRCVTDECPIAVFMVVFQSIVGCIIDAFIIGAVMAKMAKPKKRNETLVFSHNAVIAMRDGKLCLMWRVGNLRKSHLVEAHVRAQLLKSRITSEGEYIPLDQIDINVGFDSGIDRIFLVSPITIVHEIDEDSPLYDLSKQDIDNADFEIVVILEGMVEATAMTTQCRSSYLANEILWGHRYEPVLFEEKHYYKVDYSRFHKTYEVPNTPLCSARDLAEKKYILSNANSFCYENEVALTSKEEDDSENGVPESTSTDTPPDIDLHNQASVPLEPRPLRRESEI
Method: [Worded in the source for another target; used here, by the source, with some conditions changed.] Tl^+ flux assays were performed essentially as described previously, [18], [19]. Briefly, stably transfected T-Rex-HEK-293 cells expressing AeKir1 channels were cultured overnight in 384-well plates (20,000 cells/20 µL/well black-walled, clear-bottomed BD PureCoat amine-coated plates (BD, Bedford, MA) with a plating media containing DMEM, 10% dialyzed FBS and 1 µg/mL tetracycline. The next day, the cell culture medium was replaced with a dye-loading solution containing assay buffer (Hanks Balanced Salt Solution with 20 mM HEPES, pH 7.3), 0.01% (w/v) Pluronic F-127 (Life Technologies, Carlsbad, CA), and 1.2 µM of the thallium-sensitive dye Thallos-AM (TEFlabs, Austin, TX). Following 1 hr incubation at room temperature, the dye-loading solution was washed from the plates and replaced with 20 µL/well of assay buffer. […] Tl^+ flux data were analyzed as previously described, [21], [22] using a combination of Excel (Microsoft Corp, Redmond, WA) with XLfit add-in (IDBS, Guildford, Surrey, UK) and OriginPro (OriginLab, Northampton, MA) software. […] The slope of the fluorescence increase beginning 5 s after Tl^+ addition and ending 15 s after Tl^+ addition was calculated.

Question: For `CCC(=O)N1c2ccc(S(=O)(=O)Nc3cccc(OC)c3)cc2CC1C` (stereo not drawn) [VU625, N-(3-methoxyphenyl)-2-methyl-1-propionylindoline-5-sulfonamide], which IC50 (Kir7.1(M125R)) is on record?
Answer: Its IC50 is > 30 µM.

Question: What about the radioligand displacement (adenosine A1 receptor) of the same compound?
Answer: Its radioligand displacement is 76%.

Question: What about the IC50 (Kir2.1) of the same compound?
Answer: The IC50 was > 30 µM.
